{"source": "patent US4997829A", "about": "“Penem compounds, and use thereof” (Suntory Limited, priority 1985, dated 1991)", "key": {"[1]": {"settings": "literature; cited from earlier work"}, "S. aureus Smith": {"tested_on": "S. aureus Smith", "experiment": "Therapeutic effect against experimental infection in mice (ED50)", "assay_type": "in vivo, S. aureus; ICR strain male mice", "settings": "oral; survival after 6 days, Probit method; 8640 min", "description": "(§1) Out of the novel compound obtained according to this invention, SUN 4435 was selected to carry out a treatment experiment with infected animals. As an animal, there were employed ICR strain male mice (5-weeks aged, with an average body weight of 29.1 g), which were infected intraperitoneally with a test microorganism, S. aureus Smith or E. coli KC-14, and 24 hours later, treated by subcutaneous or oral application of SUN 4435 or SUN 5555. ED50 values were determined from the survival rates found after 6 days in accordance with the Probit method."}, "E. coli KC-14": {"tested_on": "E. coli KC-14", "experiment": "Therapeutic effect against experimental infection in mice (ED50)", "assay_type": "in vivo, E. coli; ICR strain male mice", "settings": "oral; survival after 6 days, Probit method; 8640 min", "description": "as §1"}, "Acute toxicity test": {"experiment": "Acute toxicity test", "assay_type": "in vivo", "settings": "intravenous", "description": "Out of the novel compounds obtained according to this invention, SUN 4435 and SUN 5555 were selected to carry out an acute toxicity test. As an animal, there were employed ICR strain mice (4-weeks aged), which were treated by oral and intravenous application of the compounds."}, "A. calcoaceticus": {"tested_on": "A. calcoaceticus", "experiment": "Sensitivity of clinically isolated strains", "assay_type": "cell-based", "settings": "Acinetobacter calcoaceticus; clinical isolates", "description": "(§2) With regard to the novel compound, SUN 5555, as obtained according to this invention, sensitivities were determined toward the S. aureus strain 87, E. coli strain 88, Klebsiella sp. strain 63, P. mirabillis strain 30, P. vulgaris strain 41, M. morganii strain 29, P. rettgeri strain 17, S. marcescens strain 88, A. calcoaceticus strain 57 and H. influenza strain 25. The determinations were carried out in accordance with the minimal growth inhibitory concentration measuring method as specified by The Chemotherapeutic Society of Japan, with the results being shown […], respectively."}, "E. coli": {"tested_on": "E. coli", "experiment": "Sensitivity of clinically isolated strains", "assay_type": "cell-based", "settings": "Escherichia coli; clinical isolates", "description": "as §2"}, "H. influenza": {"tested_on": "H. influenza", "experiment": "Sensitivity of clinically isolated strains", "assay_type": "cell-based", "settings": "clinical isolates", "description": "as §2"}, "Klebsiella sp.": {"tested_on": "Klebsiella sp.", "experiment": "Sensitivity of clinically isolated strains", "assay_type": "cell-based", "settings": "clinical isolates", "description": "as §2"}, "M. morganii": {"tested_on": "M. morganii", "experiment": "Sensitivity of clinically isolated strains", "assay_type": "cell-based", "settings": "Morganella morganii; clinical isolates", "description": "as §2"}, "[2]": {"tested_on": "Methycillin-resistant S. aureus", "experiment": "Sensitivity of clinically isolated strains", "assay_type": "cell-based", "settings": "Staphylococcus aureus", "description": "as §2"}, "P. mirabillis": {"tested_on": "P. mirabillis", "experiment": "Sensitivity of clinically isolated strains", "assay_type": "cell-based", "settings": "clinical isolates", "description": "as §2"}, "P. rettgeri": {"tested_on": "P. rettgeri", "experiment": "Sensitivity of clinically isolated strains", "assay_type": "cell-based", "settings": "Providencia rettgeri; clinical isolates", "description": "as §2"}, "P. vulgaris": {"tested_on": "P. vulgaris", "experiment": "Sensitivity of clinically isolated strains", "assay_type": "cell-based", "settings": "Proteus vulgaris", "description": "as §2"}, "S. aureus": {"tested_on": "S. aureus", "experiment": "Sensitivity of clinically isolated strains", "assay_type": "cell-based", "settings": "Staphylococcus aureus; clinical isolates", "description": "as §2"}, "S. marcescens": {"tested_on": "S. marcescens", "experiment": "Sensitivity of clinically isolated strains", "assay_type": "cell-based", "settings": "Serratia marcescens; clinical isolates", "description": "as §2"}, "S. pyogenenes": {"tested_on": "S. pyogenenes", "experiment": "Sensitivity of clinically isolated strains", "assay_type": "cell-based", "settings": "clinical isolates"}}}
{"smiles": "C[C@@H](O)[C@@H]1C(=O)N2C(C(=O)O)=C(SCCN)S[C@H]12", "note": "[1-thiathienamycin]", "values": [{"measurement": "activity", "setting": "[1]", "value": "strong activity"}]}
{"smiles": "C[C@@H](O)[C@H]1C(=O)N2C(C(=O)O)=C([C@H]3CCCO3)S[C@H]12", "note": "[SUN 5555, Sodium (1'R, 2\"R, 5R, 6S)-6-(1'-hydroxyethyl)-2-(2\"-tetrahydofuranyl)penem-3-carboxylate]", "values": [{"measurement": "ED50", "setting": "S. aureus Smith", "value": 5.6, "unit": "mg/kg"}, {"measurement": "ED50", "setting": "E. coli KC-14", "value": 13.9, "unit": "mg/kg"}, {"measurement": "survival", "setting": "Acute toxicity test; 3 g/kg, two male and female mice", "value": "survived"}, {"measurement": "survival", "setting": "Acute toxicity test; 5 g/kg, five male mice", "value": "one out of five male mice"}, {"measurement": "MIC50", "setting": "A. calcoaceticus", "value": 6.25, "unit": "µg/mL"}, {"measurement": "MIC90", "setting": "A. calcoaceticus", "value": 25, "unit": "µg/mL"}, {"measurement": "MIC50", "setting": "E. coli", "value": 0.78, "unit": "µg/mL"}, {"measurement": "MIC90", "setting": "E. coli", "value": 1.56, "unit": "µg/mL"}, {"measurement": "MIC50", "setting": "H. influenza", "value": 0.39, "unit": "µg/mL"}, {"measurement": "MIC90", "setting": "H. influenza", "value": 0.78, "unit": "µg/mL"}, {"measurement": "MIC50", "setting": "Klebsiella sp.", "value": 0.78, "unit": "µg/mL"}, {"measurement": "MIC90", "setting": "Klebsiella sp.", "value": 1.56, "unit": "µg/mL"}, {"measurement": "MIC50", "setting": "M. morganii", "value": 1.56, "unit": "µg/mL"}, {"measurement": "MIC90", "setting": "M. morganii", "value": 6.25, "unit": "µg/mL"}, {"measurement": "MIC50", "setting": "[2]", "value": 1.56, "unit": "µg/mL"}, {"measurement": "MIC90", "setting": "[2]", "value": "> 100", "unit": "µg/mL"}, {"measurement": "MIC50", "setting": "P. mirabillis", "value": 3.13, "unit": "µg/mL"}, {"measurement": "MIC90", "setting": "P. mirabillis", "value": 6.25, "unit": "µg/mL"}, {"measurement": "MIC50", "setting": "P. rettgeri", "value": 1.56, "unit": "µg/mL"}, {"measurement": "MIC90", "setting": "P. rettgeri", "value": 6.25, "unit": "µg/mL"}, {"measurement": "MIC50", "setting": "P. vulgaris", "value": 3.13, "unit": "µg/mL"}, {"measurement": "MIC90", "setting": "P. vulgaris", "value": 6.25, "unit": "µg/mL"}, {"measurement": "MIC50", "setting": "S. aureus", "value": 0.1, "unit": "µg/mL"}, {"measurement": "MIC90", "setting": "S. aureus", "value": 0.2, "unit": "µg/mL"}, {"measurement": "MIC50", "setting": "S. marcescens", "value": 1.56, "unit": "µg/mL"}, {"measurement": "MIC90", "setting": "S. marcescens", "value": 6.25, "unit": "µg/mL"}, {"measurement": "MIC50", "setting": "S. pyogenenes", "value": "< 0.025", "unit": "µg/mL"}, {"measurement": "MIC90", "setting": "S. pyogenenes", "value": "< 0.025", "unit": "µg/mL"}]}
{"smiles": "CCSC1=C(C(=O)O)N2C(=O)[C@H]([C@@H](C)O)[C@H]2S1", "note": "[Sch 29482]", "values": [{"measurement": "activity", "setting": "[1]", "value": "strong activity"}]}
